Assay results published in patent US20230061736A1, “GPR119 AGONISTS” (Kallyope, Inc., priority 2019, published 2023).

Target: T1, human GPR119 (hGPR119) (Homo sapiens, UniProt Q8TDV5)
T1 construct: expressed in transfected cells
T1 sequence (Q8TDV5 1-335): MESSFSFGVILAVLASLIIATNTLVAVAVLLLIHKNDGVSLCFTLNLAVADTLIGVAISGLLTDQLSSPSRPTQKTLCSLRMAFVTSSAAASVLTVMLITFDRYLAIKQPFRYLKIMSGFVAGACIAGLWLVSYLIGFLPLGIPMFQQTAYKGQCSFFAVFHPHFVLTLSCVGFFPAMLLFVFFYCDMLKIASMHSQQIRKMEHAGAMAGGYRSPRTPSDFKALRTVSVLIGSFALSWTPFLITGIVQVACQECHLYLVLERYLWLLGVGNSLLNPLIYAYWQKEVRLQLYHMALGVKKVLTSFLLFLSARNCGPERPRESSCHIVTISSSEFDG
Assay: cAMP accumulation assay (cAMP Gs dynamic HTRF kit)
Type: cell-based
Settings: CHO-K1 cells stably expressing hGPR119, 4-parameter fit; for Emax: 1 h, % activity normalized to Max/Min controls; for EC50: cAMP accumulation
Method: CHO-K1 cells stably expressing human GPR119 (hGPR119) were prepared by transfection of a GPR119-carrying plasmid using Lipofectamine 2000 (following manufacturer instructions). A stable cell line was established using the limiting dilution method with geneticine selection. Assay-ready frozen (ARF) cells were prepared and used throughout the study.
The assay was performed in a 384-well plate format using the cAMP Gs dynamic assay kit from Cisbio. ARF cells expressing hGPR119 were thawed, washed and then resuspended in cAMP stimulation buffer at a cell density of 1.1×10^6 cells/mL. Cells were plated at a density of ˜10,000 cells/well (9 μL/well). Dose response curves for the tested compounds were prepared in a cAMP stimulation buffer, containing 0.1% Tween 80 at 4 fold the final concentration. The compounds were then transferred to the cell plates using BRAVO (3 μL/well) and the plates were incubated for 60 minutes at 37° C./5% CO2. Detection buffer (10 μL, prepared as described in the cAMP Gs dynamic kit) were added to each well, and the plates were incubated at ambient temperature for 1 hr.
RT-FRET was measured using a ClarioSTAR plate reader, calculating the ratio between emissions at 665 nm and 620 nm (HTRF ratio). The HTRF ratio for positive (Max) and negative (Min) controls were used to normalize HTRF data and generate values for % activity. EC50 and Max activity values were determined using a standard 4-parameter fit.

Emax [%] | EC50 [nM] | SMILES
100 to 130 |  | O=C(NCCCCS(=O)(=O)O)C1CN(C(=O)Cc2ccc(OCCCC3CCN(c4ncc(Cl)cn4)CC3)cc2F)C1 [Example 173, 4-[[1-[2-[4-[3-[1-(5-chloropyrimidin-2-yl)-4-piperidyl]propoxy]-2-fluoro-phenyl]acetyl]azetidine-3-carbonyl]amino] butane-1-sulfonic acid]
100 to 130 | 100 to 1000 | COCc1cnc(N2CCC(CCCOc3cc(F)c(CC(=O)N4CC(CNC[C@H](O)[C@@H](O)[C@H](O)[C@H](O)CO)C4)c(F)c3)CC2)nc1 [Example 94, 2-(2,6-difluoro-4-(3-(1-(5-(methoxymethyl)pyrimidin-2-yl)piperidin-4-yl)propoxy)phenyl)-1-(3-((((2S,3R,4R,5R)-2,3,4,5,6-pentahydroxyhexyl)amino)methyl)azetidin-1-yl)ethan-1-one]
100 to 130 | ≤ 100 | O=C(Cc1ccc(OCCCC2CCN(c3ncc(Cl)cn3)CC2)cc1F)N1CC(CN2C[C@@H](O)[C@H](O)C2)C1 (stereo in doubt) [Example 47, 2-[4-[3-[1-(5-chloropyrimidin-2-yl)-4-piperidyl]propoxy]-2-fluoro-phenyl]-1-[3-[[rac-(3R,4R)-3,4-dihydroxypyrrolidin-1-yl]methyl]azetidin-1-yl]ethanone]
50 to 100 | 100 to 1000 | COCc1cnc(N2CCC(CCCOc3ccc(CC(=O)N4CC(CNCC[C@@H](O)C[C@@H](O)CC(=O)O)C4)c(F)c3)CC2)nc1 [Example 82, (3R,5R)-7-[[1-[2-[2-fluoro-4-[3-[1-[5-(methoxymethyl)pyrimidin-2-yl]-4-piperidyl]propoxy]phenyl]acetyl]azetidin-3-yl]methylamino]-3,5-dihydroxy-heptanoicacid]
100 to 130 | ≤ 100 | CCc1cnc(N2CCC(CCCOc3ccc(CC(=O)N4CC(CNCCNC(=O)NC(CO)(CO)CO)C4)c(F)c3)CC2)nc1 [Example 65, 1-(1,3-dihydroxy-2-(hydroxymethyl)propan-2-yl)-3-(2-(((1-(2-(4-(3-(1-(5-ethylpyrimidin-2-yl)piperidin-4-yl)propoxy)-2-fluorophenyl)acetyl)azetidin-3-yl)methyl)amino)ethyl)urea]
50 to 100 | 1000 to 10000 | CC(C)OC(=O)N1CCC2(CC1)CC2CCCOc1ccc(CC(=O)N2CC(CNC[C@H](O)[C@@H](O)[C@H](O)[C@H](O)CO)C2)c(F)c1 (stereo partly drawn) [Example 145, isopropyl 2-[3-[3-fluoro-4-[2-oxo-2-[3-[[[(2S,3R,4R,5R)-2,3,4,5,6-pentahydroxyhexyl]amino]methyl]azetidin-1-yl]ethyl]phenoxy]propyl]-6-azaspiro[2.5]octane-6-carboxylate]
100 to 130 | ≤ 100 | COCc1cnc(N2CCC(CCCOc3cc(F)c(CC(=O)N4CCC(O)(CNCC(CO)(CO)CO)C4)c(F)c3)CC2)nc1 (stereo not drawn) [Example 190, 2-[2,6-difluoro-4-[3-[1-[5-(methoxymethyl)pyrimidin-2-yl]-4-piperidyl]propoxy]phenyl]-1-[3-hydroxy-3-[[[3-hydroxy-2,2-bis(hydroxymethyl)propyl]amino]methyl]pyrrolidin-1-yl]ethanone]
100 to 130 | 100 to 1000 | O=C(Cc1ccc(OCCCC2CCN(c3ncc(Cl)cn3)CC2)cc1F)N1CC(CCNC[C@H](O)[C@@H](O)[C@H](O)[C@H](O)CO)C1 [Example 61]
100 to 130 | 100 to 1000 | O=C(NC(CO)CO)C1CN(C(=O)Cc2ccc(OCCCC3CCN(c4ncc(Cl)cn4)CC3)cc2F)C1 [Example 28, 1-[2-[4-[3-[1-(5-chloropyrimidin-2-yl)-4-piperidyl]propoxy]-2-fluoro-phenyl]acetyl]-N-[2-hydroxy-1-(hydroxymethyl)ethyl]azetidine-3-carboxamide]
≥ 130 | ≤ 100 | CCOc1cnc(N2CCC(CCCOc3cc(F)c(CC(=O)N4CC[C@@H](CNCC(O)(CO)CO)C4)c(F)c3)CC2)nc1 [Example 156, 2-[4-[3-[1-(5-ethoxypyrimidin-2-yl)-4-piperidyl]propoxy]-2,6-difluoro-phenyl]-1-[(3S)-3-[[[2,3-dihydroxy-2-(hydroxymethyl)propyl]amino]methyl]pyrrolidin-1-yl]ethanone]
100 to 130 | 100 to 1000 | O=C(Cc1ncc(OCCCC2CCN(c3ncc(Cl)cn3)CC2)cc1F)N1CC(CNC[C@H](O)[C@@H](O)[C@H](O)[C@H](O)CO)C1 [Example 170, 2-[5-[3-[1-(5-chloropyrimidin-2-yl)-4-piperidyl]propoxy]-3-fluoro-2-pyridyl]-1-[3-[[[(2S,3R,4R,5R)-2,3,4,5,6-pentahydroxyhexyl]amino]methyl]azetidin-1-yl]ethanone]
≥ 130 | ≤ 100 | COCc1cnc(N2CCC(CCCOc3cc(F)c(CC(=O)N4CC[C@@H](CNCC(CO)(CO)CO)C4)c(F)c3)CC2)nc1 [Example 160, 2-[2,6-difluoro-4-[3-[1-[5-(methoxymethyl)pyrimidin-2-yl]-4-piperidyl]propoxy]phenyl]-1-[(3S)-3-[[[3-hydroxy-2,2-bis(hydroxymethyl)propyl]amino]methyl]pyrrolidin-1-yl]ethanone]
100 to 130 | ≤ 100 | O=C(Cc1ccc(OCCCC2CCN(c3ncc(Cl)cn3)CC2)cc1F)N1CC[C@H](CNCC(O)(CO)CO)C1 [Example 101, 2-[4-[3-[1-(5-chloropyrimidin-2-yl)-4-piperidyl]propoxy]-2-fluoro-phenyl]-1-[(3R)-3-[[[2,3-dihydroxy-2-(hydroxymethyl)propyl]amino]methyl]pyrrolidin-1-yl]ethanone]
≥ 130 | 100 to 1000 | O=C(Cc1ccc(OCCCC2CCN(c3ncc(Cl)cn3)CC2)cc1F)NCCCCCC(=O)N1C[C@H](O)[C@@H](O)C1 [Example 25, 2-[4-[3-[1-(5-chloropyrimidin-2-yl)-4-piperidyl]propoxy]-2-fluoro-phenyl]-N-[6-[(3S,4S)-3,4-dihydroxypyrrolidin-1-yl]-6-oxo-hexyl]acetamide]
100 to 130 | ≤ 100 | O=C(Cc1ccc(OCCCC2CCN(c3ncc(Cl)cn3)CC2)cc1F)N1CC(CNC[C@@H](O)[C@H](O)[C@H](O)CO)C1 [Example 167, 2-[4-[3-[1-(5-chloropyrimidin-2-yl)-4-piperidyl]propoxy]-2-fluoro-phenyl]-1-[3-[[[(2R,38,4R)-2,3,4,5-tetrahydroxypentyl]amino]methyl]azetidin-1-yl]ethanone]
100 to 130 | 100 to 1000 | O=C(Cc1ccc(OCCCC2CC23CCN(c2ncc(Cl)cn2)CC3)cc1F)N1CC(CNC[C@H](O)[C@@H](O)[C@H](O)[C@H](O)CO)C1 (stereo partly drawn) [Example 142, 2-[4-[3-[6-(5-chloropyrimidin-2-yl)-6-azaspiro[2.5]octan-2-yl]propoxy]-2-fluoro-phenyl]-1-[3-[[[(2S,3R,4R,5R)-2,3,4,5,6-pentahydroxyhexyl]amino]methyl]azetidin-1-yl]ethanone]
≥ 130 | ≤ 100 | NS(=O)(=O)CCCNC(=O)Cc1ccc(OCCCC2CCN(c3ncc(Cl)cn3)CC2)cc1F [Example 13, 2-[4-[3-[1-(5-chloropyrimidin-2-yl)-4-piperidyl]propoxy]-2-fluoro-phenyl]-N-(3-sulfamoylpropyl)acetamide]
≥ 130 | ≤ 100 | O=C(CC1CN(C(=O)Cc2c(F)cc(OCCCC3CCN(c4ncc(Cl)cn4)CC3)cc2F)C1)NCC(O)(CO)CO [Example 34, 2-[1-[2-[4-[3-[1-(5-chloropyrimidin-2-yl)-4-piperidyl]propoxy]-2,6-difluoro-phenyl]acetyl]azetidin-3-yl]-N-[2,3-dihydroxy-2-(hydroxymethyl)propyl]acetamide]
100 to 130 | ≤ 100 | CCCc1cnc(N2CCC(CCCOc3cc(F)c(CC(=O)N4CC(CNC[C@H](O)[C@@H](O)[C@H](O)[C@H](O)CO)C4)c(F)c3)CC2)nc1 [Example 78, 2-(2,6-difluoro-4-(3-(1-(5-propylpyrimidin-2-yl)piperidin-4-yl)propoxy)phenyl)-1-(3-((((2S,3R,4R,5R)-2,3,4,5,6-pentahydroxyhexyl)amino)methyl)azetidin-1-yl)ethan-1-one]

SMILES | Emax [%] | EC50 [nM]
O=C(Cc1ccc(OCCCCC2CCN(c3ncc(Cl)cn3)CC2)cc1F)N1CC(CNC[C@H](O)[C@@H](O)[C@H](O)[C@H](O)CO)C1 [Example 54, 2-[4-[4-[1-(5-chloropyrimidin-2-yl)-4-piperidyl]butoxy]-2-fluoro-phenyl]-1-[3-[[[(2S,3R,4R,5R)-2,3,4,5,6-pentahydroxyhexyl]amino]methyl]azetidin-1-yl]ethanone] | ≥ 130 | 100 to 1000
